# Assay results taken from US12077503B2, “Substituted cyclic amides and their use as herbicides” (FMC CORPORATION, priority 2015, dated 2024).
# What was measured:
# Type in all cases: in vivo
# [1] = system: sedge, umbrella (small-flower umbrella sedge, Cyperus difformis); experiment: Test B flooded paddy test; settings: Cyperus difformis, 250 g ai/ha, Flood; 0 to 100 scale where 0 is no effect and 100 is complete control; read-out: Sedge, Umbrella plant response rating
# How it was run: (§1)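 Visual ratings (0 none to 100 complete control) are relative to untreated plants, taken 13–15 d after treatment in a greenhouse. Test material went straight into floodwater standing 3 cm above the soil, kept constant, on plants at the 2-leaf stage.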
# [2] = system: rice (Oryra sativa); experiment: Test B flooded paddy test; settings: Oryza sativa, 250 g ai/ha, Flood; 0 to 100 scale where 0 is no effect and 100 is complete control; read-out: Rice plant response rating
# How it was run: as §1
# [3] = system: ducksalad (Heteranthera limosa); experiment: Test B flooded paddy test; settings: Heteranthera limosa, 250 g ai/ha, Flood; 0 to 100 scale where 0 is no effect and 100 is complete control; read-out: Ducksalad plant response rating
# How it was run: as §1
# [4] = system: barnyardgrass (Echinochloa crus-galli); experiment: Test B flooded paddy test; settings: Echinochloa crus-galli, 250 g ai/ha, Flood; 0 to 100 scale where 0 is no effect and 100 is complete control; read-out: Barnyardgrass plant response rating
# How it was run: as §1
# [5] = system: wheat (Triticum aestivum); experiment: Test A postemergence; settings: Triticum aestivum, post-emergence, 240 h
# How it was run: (§2)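 Treatment is preemergence as a directed soil spray after planting, or postemergence at the one- to two-leaf stage, with test chemical in a non-phytotoxic solvent mixture plus surfactant. Plants stay in the greenhouse about 10 d before visual injury scoring on a 0 to 100 scale versus untreated controls.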
# [6] = system: Kochia (Kochia scoparia); experiment: Test A postemergence; settings: Bassia scoparia, post-emergence, 240 h
# How it was run: as §2
# [7] = system: Galium (catchweed bedstraw, Galium aparine); experiment: Test A postemergence; settings: Galium, post-emergence, 240 h
# How it was run: as §2
# [8] = system: ragweed (common ragweed, Ambrosia elatior); experiment: Test A postemergence; settings: Ambrosia artemisiifolia, post-emergence, 240 h
# How it was run: as §2
# [9] = system: corn (Zea mays); experiment: Test A postemergence; settings: Zea mays, post-emergence, 240 h
# How it was run: as §2
# [10] = system: pigweed (Amaranthus retroflexus); experiment: Test A postemergence; settings: Amaranthus retroflexus, post-emergence, 240 h
# How it was run: as §2
# [11] = system: giant foxtail (Setaria faberii); experiment: Test A postemergence; settings: Setaria faberi, post-emergence, 240 h
# How it was run: as §2
# [12] = system: blackgrass (Alopecurus myosuroides); experiment: Test A postemergence; settings: Alopecurus myosuroides, post-emergence, 240 h
# How it was run: as §2
# [13] = system: ryegrass, Italian (Italian ryegrass, Lolium multiflorum); experiment: Test A postemergence; settings: Lolium multiflorum, post-emergence, 240 h
# How it was run: as §2
# [14] = system: barnyardgrass (Echinochloa crus-galli); experiment: Test A postemergence; settings: Echinochloa crus-galli, post-emergence, 240 h
# How it was run: as §2
# [15] = system: Kochia (Kochia scoparia); experiment: Test A preemergence; settings: Bassia scoparia, pre-emergence, 240 h, 0 to 100 scale where 0 is no effect and 100 is complete control, read-out: Kochia plant response rating
# How it was run: as §2
# [16] = system: ragweed (common ragweed, Ambrosia elatior); experiment: Test A preemergence; settings: Ambrosia artemisiifolia, pre-emergence, 240 h, 0 to 100 scale where 0 is no effect and 100 is complete control, read-out: Ragweed plant response rating
# How it was run: as §2
# [17] = system: pigweed (Amaranthus retroflexus); experiment: Test A preemergence; settings: Amaranthus retroflexus, pre-emergence, 240 h, 0 to 100 scale where 0 is no effect and 100 is complete control, read-out: Pigweed plant response rating
# [18] = system: giant foxtail (Setaria faberii); experiment: Test A preemergence; settings: Setaria faberi, pre-emergence, 240 h, 0 to 100 scale where 0 is no effect and 100 is complete control, read-out: Foxtail, Giant plant response rating
# How it was run: as §2
# [19] = system: ryegrass, Italian (Italian ryegrass, Lolium multiflorum); experiment: Test A preemergence; settings: Lolium multiflorum, pre-emergence, 240 h, 0 to 100 scale where 0 is no effect and 100 is complete control, read-out: Ryegrass, Italian plant response rating
# How it was run: as §2
# [20] = system: barnyardgrass (Echinochloa crus-galli); experiment: Test A preemergence; settings: Echinochloa crus-galli, pre-emergence, 240 h, 0 to 100 scale where 0 is no effect and 100 is complete control, read-out: Barnyardgrass plant response rating
# How it was run: as §2
# [21] = 125 g ai/ha, preemergence, approx. 10 d
structure (smiles),measurement,setting,value
CN1C[C@H](c2ccc(C(F)(F)F)nc2)[C@@](C)(C(=O)Nc2cccc(F)c2F)C1=O [Compound 1109],pest or weed control at 250 g/ha,[1],0%
same,pest or weed control at 250 g/ha,[2],50%
same,pest or weed control at 250 g/ha,[3],90%
same,pest or weed control at 250 g/ha,[4],85%
same,plant injury at 125 g/ha,"[5]; 125 g ai/ha, postemergence, visual injury on 0 to 100 scale (0 no effect, 100 complete control), approx. 10 d, read-out: Wheat plant response rating",60%
same,plant injury at 31 g/ha,"[5]; Postemergence, 31 g ai/ha, visual injury after approx. 10 d, 0 to 100 scale, 0 no effect, 100 complete control, read-out: Plant response rating, Wheat",30%
same,pest or weed control at 125 g/ha,"[6]; 125 g ai/ha, postemergence, visual injury on 0 to 100 scale (0 no effect, 100 complete control), approx. 10 d, read-out: Kochia plant response rating",70%
same,pest or weed control at 31 g/ha,"[6]; Postemergence, 31 g ai/ha, visual injury after approx. 10 d, 0 to 100 scale, 0 no effect, 100 complete control, read-out: Plant response rating, Kochia",20%
same,pest or weed control at 125 g/ha,"[7]; 125 g ai/ha, postemergence, visual injury on 0 to 100 scale (0 no effect, 100 complete control), approx. 10 d, read-out: Galium plant response rating",50%
same,pest or weed control at 31 g/ha,"[7]; Postemergence, 31 g ai/ha, visual injury after approx. 10 d, 0 to 100 scale, 0 no effect, 100 complete control, read-out: Plant response rating, Galium",30%
same,pest or weed control at 125 g/ha,"[8]; 125 g ai/ha, postemergence, visual injury on 0 to 100 scale (0 no effect, 100 complete control), approx. 10 d, read-out: Ragweed plant response rating",50%
same,pest or weed control at 31 g/ha,"[8]; Postemergence, 31 g ai/ha, visual injury after approx. 10 d, 0 to 100 scale, 0 no effect, 100 complete control, read-out: Plant response rating, Ragweed",0%
same,plant injury at 125 g/ha,"[9]; 125 g ai/ha, postemergence, visual injury on 0 to 100 scale (0 no effect, 100 complete control), approx. 10 d, read-out: Corn plant response rating",80%
same,"Corn plant response rating (crop injury, 0 = no effect, 100 = complete kill) at 31 g/ha","[9]; Postemergence, 31 g ai/ha, visual injury after approx. 10 d, 0 to 100 scale, 0 no effect, 100 complete control",40%
same,pest or weed control at 125 g/ha,"[10]; 125 g ai/ha, postemergence, visual injury on 0 to 100 scale (0 no effect, 100 complete control), approx. 10 d, read-out: Pigweed plant response rating",60%
same,pest or weed control at 31 g/ha,"[10]; Postemergence, 31 g ai/ha, visual injury after approx. 10 d, 0 to 100 scale, 0 no effect, 100 complete control, read-out: Plant response rating, Pigweed",20%
same,pest or weed control at 125 g/ha,"[11]; 125 g ai/ha, postemergence, visual injury on 0 to 100 scale (0 no effect, 100 complete control), approx. 10 d, read-out: Foxtail, Giant plant response rating",90%
same,pest or weed control at 31 g/ha,"[11]; Postemergence, 31 g ai/ha, visual injury after approx. 10 d, 0 to 100 scale, 0 no effect, 100 complete control, read-out: Plant response rating, Foxtail, Giant",70%
same,pest or weed control at 125 g/ha,"[12]; 125 g ai/ha, postemergence, visual injury on 0 to 100 scale (0 no effect, 100 complete control), approx. 10 d, read-out: Blackgrass plant response rating",40%
same,pest or weed control at 31 g/ha,"[12]; Postemergence, 31 g ai/ha, visual injury after approx. 10 d, 0 to 100 scale, 0 no effect, 100 complete control, read-out: Plant response rating, Blackgrass",20%
same,pest or weed control at 125 g/ha,"[13]; 125 g ai/ha, postemergence, visual injury on 0 to 100 scale (0 no effect, 100 complete control), approx. 10 d, read-out: Ryegrass, Italian plant response rating",50%
same,pest or weed control at 31 g/ha,"[13]; Postemergence, 31 g ai/ha, visual injury after approx. 10 d, 0 to 100 scale, 0 no effect, 100 complete control, read-out: Plant response rating, Ryegrass, Italian",0%
same,pest or weed control at 125 g/ha,"[14]; 125 g ai/ha, postemergence, visual injury on 0 to 100 scale (0 no effect, 100 complete control), approx. 10 d, read-out: Barnyardgrass plant response rating",100%
same,pest or weed control at 31 g/ha,"[14]; Postemergence, 31 g ai/ha, visual injury after approx. 10 d, 0 to 100 scale, 0 no effect, 100 complete control, read-out: Plant response rating, Barnyardgrass",90%
same,pest or weed control at 31 g/ha,"[15]; 31 g ai/ha, Preemergence",0%
same,pest or weed control at 125 g/ha,[15]; [21],70%
same,pest or weed control at 31 g/ha,"[16]; 31 g ai/ha, Preemergence",0%
same,pest or weed control at 125 g/ha,[16]; [21],50%
same,pest or weed control at 31 g/ha,"[17]; 31 g ai/ha, Preemergence",70%
same,pest or weed control at 125 g/ha,[17]; [21],90%
same,pest or weed control at 31 g/ha,"[18]; 31 g ai/ha, Preemergence",100%
same,pest or weed control at 125 g/ha,[18]; [21],100%
same,pest or weed control at 31 g/ha,"[19]; 31 g ai/ha, Preemergence",60%
same,pest or weed control at 125 g/ha,[19]; [21],80%
same,pest or weed control at 31 g/ha,"[20]; 31 g ai/ha, Preemergence",100%
same,pest or weed control at 125 g/ha,[20]; [21],100%
